Test results taken from patent US8883827B2, “Azole derivatives as WTN pathway inhibitors” (Oslo University Hospital HF, priority 2009, dated 2014).
“And” between values parts separate entries of the source, which are not always exact repeats. Identical values can stand only once.

Assays:
Apc^Min mice = assay: Tumour growth in Apc^Min mice; format: in vivo
Description: Cages containing three C57BL/6 females were crossed with one C57BL/6J-Apc^Min male. The mice were fed with 2018SX Teklad Global 18% Protein Extruded Rodent Diet (Harlan™). 5-7 day old pups were randomized and divided into two treatment groups; the test group was treated with compound (1) and the control group treated with control vehicle (1% Tween®80—Sigma). Test solutions were administered daily by subcutaneous injection into the back of the neck (10 μl solution per gram of animal weight, solution 15 mg/ml compound). Two day injection intermissions followed after every fifth injection day. At the age of 21 days, mice were genotyped and Apc^Min animals were sorted into a males and females. At the same time, subcutaneous injection of the solutions was substituted by oral administration. For oral application, compound (1) was dissolved in DMSO to […]. DMSO alone was used as a vehicle control (5 μl solution per gram of animal weight, solution 30 mg/ml). Administration was terminated at the age of 9 weeks and animals euthanased. The small intestine and colon of each animal was dissected, fixed in 10% PFA and stained with 1% methylene blue. Intestines were divided into anonymous and coded samples before manual analysis by microscopy. The frequency, distribution and size of the tumors were quantified. The mice were weighted twice a week throughout the experiment. All animal experiments were approved by local ethics authorities at Forsøksdyrutvalget, Oslo, Norway, and were carried out following accepted ethical standards. […] For each statistical comparison, a Shapiro-Wilk normality test was performed along with a Students t-test if passed (P>0.05). When normality could not be achieved in the Shapiro-Wilk test, a Mann-Whitney rank sum test was used instead of Students t-test. The α-level was set to 0.05 and a difference with P<0.05 was considered to be statistically significant. Sample size (n), median, range, maximum, minimum, mean, standard deviation, standard error, and confidence intervals (C.I. of mean) are listed.

CaMKI(h) = biological target: T1, CaMKI(h) (Homo sapiens, UniProt Q14012); assay: Kinase screen; format: biochemical; conditions: 0.1% DMSO control = 100%
T1 construct: purchased Millipore (KinaseProfiler service)
T1 sequence (Q14012 whole entry): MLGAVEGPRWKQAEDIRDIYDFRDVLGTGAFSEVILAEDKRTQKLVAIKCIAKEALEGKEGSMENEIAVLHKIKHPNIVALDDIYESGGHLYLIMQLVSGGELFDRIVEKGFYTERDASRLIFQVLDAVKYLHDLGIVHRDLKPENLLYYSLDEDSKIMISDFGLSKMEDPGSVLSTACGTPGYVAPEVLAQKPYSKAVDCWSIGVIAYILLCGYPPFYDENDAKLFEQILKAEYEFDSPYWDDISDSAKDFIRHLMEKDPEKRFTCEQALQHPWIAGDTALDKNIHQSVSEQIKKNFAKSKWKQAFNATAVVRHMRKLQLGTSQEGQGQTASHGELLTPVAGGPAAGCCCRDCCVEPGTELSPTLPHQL

[1] = Test female, s.c. then oral 150 mg/kg, to age 9 weeks
[2] = Test male, s.c. then oral 150 mg/kg, to age 9 weeks

COc1ccc(-n2c(SCc3nc(-c4ccc(C)cc4)no3)nnc2-c2ccncc2)cc1 [Compound 1]
number of colon tumours, Max (Apc^Min mice; Test (male + female), control max 6): 2
number of small intestine tumours, Max (Apc^Min mice; Test (male + female), control max 295): 53
number of colon tumours, Mean (Apc^Min mice; Test (male + female), control mean 1.783, P=0.003): 0.42 and 0.429
number of small intestine tumours, Mean (Apc^Min mice; Test (male + female), control mean 74.8, P=0.036): 36.1
number of colon tumours, Median (Apc^Min mice; Test (male + female), control median 1): 0
number of small intestine tumours, Median (Apc^Min mice; Test (male + female), control median 45): 35
number of colon tumours, Min (Apc^Min mice; Test (male + female), control min 0): 0
number of small intestine tumours, Min (Apc^Min mice; Test (male + female), control min 25): 19
number of small intestine tumours, Max (Apc^Min mice; [1]): 51
number of small intestine tumours, Mean (Apc^Min mice; [1]): 33.5
number of small intestine tumours, Median (Apc^Min mice; [1]): 33
number of small intestine tumours, Min (Apc^Min mice; [1]): 19
number of small intestine tumours, Max (Apc^Min mice; [2]): 53
number of small intestine tumours, Mean (Apc^Min mice; [2]): 39.1
number of small intestine tumours, Median (Apc^Min mice; [2]): 37
number of small intestine tumours, Min (Apc^Min mice; [2]): 22
difference in the bodyweight of male or female mice (Apc^Min mice; after the treatments, versus vehicle group): No substantial difference
tumour frequencies among size classes between 0.10 mm^2 and 3.20 mm^2, small intestine (Apc^Min mice; compared to control): drastically reduced
tumours in the last two-thirds of the small intestine (Apc^Min mice; compared to control): substantially fewer tumours
total tumor load in the small intestine (sum of all tumors in mm^2/n) (Apc^Min mice; control 38.1 mm^2/subject): 16.4 mm^2/subject
activity at 10 µM (CaMKI(h)): 97%
